# Legend:
# [1] = Weight change under controlled humidity conditions, first study (SPM made by the toluene slurry); type: physicochemical
# Text: Study of weight change under controlled humidity conditions, samples were placed in open vials, which were placed in closed controlled-humidity jars. Relative humidities were controlled using saturated aqueous salt solutions: 58% RH, NaBr; 75% RH, (NH4)2 SO4; 76%, sodium acetate; 84% RH, KBr. Water uptake/loss characteristics of SPM and SPA were compared. Samples were kept at ambient temperature under various relative humidities (RHs) and were periodically weighed. […] The fact that SPM loses significant mass under even high humidity conditions is inconsistent with the loss of only water.
# [2] = DSC and TGA thermal analyses; type: physicochemical
# Experimental: Differential scanning calorimetry (DSC) experiments were performed on a Dupont DSC 2000 and thermogravimetric analyses (TGA) were performed on a Dupont TGA 2000. Nitrogen was used as the purge gas and heating rates were 10° C./minute. Standards were run prior to sample analyses; Sn for DSC and calcium oxalate for TGA.
# (§1) Both SPM and SPA were analyzed by x-ray powder diffraction (XRPD), infrared (IR) spectroscopy, solid-state nuclear magnetic resonance (SSNMR) spectroscopy, differential scanning calorimetry (DSC) and thermogravimetric analysis (TGA). The XRPD patterns of SPM and SPA are quite different and distinguishable. While the IR and SSNMR spectra of SPM and SPA are different, the differences are subtle. SPM and SPA behave quite differently on both DSC and TGA thermal analyses. SPA undergoes endothermic transitions at 364° C. and 409° C. that are accompanied by a weight loss of 72%.
# [3] = Intrinsic dissolution in 90% ethanol/10% water; type: physicochemical; settings: for concentration, average: average of runs
# Experimental: (§2) Dissolutions were carried out in a standard Van-Kel dissolution bath. The medium was either water, 90% water/10% ethanol, or 95% water/5% ethanol. For nonintrinsic dissolution experiments, SPM and SPA powders were sieved and fractions that passed through a 75 μm sieve were used. For intrinsic dissolution experiments, tablets were prepared in a standard Woods apparatus by compression of 400 mg of material at 3000 psig for 1 minute.
# (§3) Each experiment was carried out by placing 900 mL of medium into one of the Van-Kel dissolution vessels and allowing it to equilibrate at 37° C. The test materials were added (powder or tablet) and samples were withdrawn by syringe at the specified times (see Table 4). Each sample was filtered through a 0.2μ nylon syringe filter. Three dissolution experiments were carried out for each lot of suspension.
# (§4) For intrinsic dissolution experiments, the test material is compressed into a tablet and the tablet (still in the die) is lowered into the dissolution medium. In this way, a consistent surface area, the tablet face, is presented to the medium. […] Therefore, tablets of SPM and SPA were prepared, removed from the die, crushed into powders, and examined by XRPD.
# Intrinsic dissolution experiments were then carried out in 90% ethanol/10% water. The tablets dissolved very quickly in this medium, resulting in rapid deformation of the tablet faces. Occasionally pieces of solid broke free of the tablets and sank to the bottom of the dissolution vessel. Within 15-40 minutes the tablets had dissolved completely. Because of this behavior, consistent surface areas were not maintained during the course of the experiments. The result was a high degree of imprecision in the concentrations measured (Table 6).
# (§5) Samples were analyzed by high-performance liquid chromatography (HPLC) on a BAS 480 HPLC system equipped with a UV/VIS detector and a TSP AS 100 autosampler, and controlled with INJECT software. A Phenomenex Hypersil C18 BDS column (5μ particle size, 4.6×150 mm) was used. The mobile phase was prepared by mixing water, methanol, and acetic acid in a 60:40:0.5 volume ratio. Analyses were carried out at a flow rate of 1 mL/minute with the UV/VIS detector set at 254 nm. The injection volume was 5 μL.
# (§6) A standard solution consisting of 74.8 μg/mL of sodium phenytoin in mobile phase was injected three times before and three times after each series of analyses. Each unknown sample was injected three times without dilution. The peak areas at 254 nm were recorded and averaged for each time point. The amount of sodium phenytoin in solution at each time point was calculated from the line equation of the calibration curve: […]
# [4] = Nonintrinsic dissolution in water; type: physicochemical
# Experimental: as §2, §3
# The rates of dissolution of SPM and SPA were compared. […] These studies were conducted by slurrying sieved (<75 μm) sodium phenytoin powder in pure water and measuring the concentrations in solution at various times by HPLC. Unfortunately, solid crystallized from the solutions withdrawn for analysis as they cooled, rendering the data invalid for determination of dissolution rate. Even so, all of the samples withdrawn contained about 5 mg/mL of sodium phenytoin, including those withdrawn 5 minutes after the slurries were prepared. […] A decrease in the concentration of dissolved sodium phenytoin with time is consistent with the reported reaction of sodium phenytoin with acids, even carbonic acid formed by dissolution of atmospheric carbon dioxide in water, to give relatively water-insoluble phenytoin.
# as §5, §6
# [5] = Drying of SPM under low pressure, XRPD of resulting solid; type: physicochemical; settings: about 1 torr, ambient temperature, 24 hours
# Experimental: Any residual dichloromethane should evaporate readily from the solid under ambient conditions. To determine if solvent evaporation could be ensured by drying under low-pressure conditions, a portion of the SPM sample was kept under about 1 torr pressure at ambient temperature for 24 hours.
# [6] = Solid form interconversion under tableting pressure (XRPD); type: physicochemical; settings: XRPD of crushed tablets
# Experimental: as §2, §4
# [7] = type: physicochemical
# Experimental: as §1
# [8] = all humidities utilized, ambient temperature
smiles,measurement,setting,value
"O=C1NC(=O)C(c2ccccc2)(c2ccccc2)N1 [SPA, sodium phenytoin anhydrate, reference compound]",Percent change based on average of final two weights,[1]; 58% RH,+24%
same,Percent change based on average of final two weights,[1]; 75% RH,+25%
same,Percent change based on average of final two weights,[1]; 84% RH,+25%
same,weight gained on reaching constant weight,[1]; [8],25%
same,weight loss accompanying the endothermic transitions,"[2]; TGA, transitions at 364° C. and 409° C.",72%
same,"concentration, Run 1",[3]; 1 min,1730 ng/mL
same,"concentration, Run 2",[3]; 1 min,1680 ng/mL
same,"concentration, Run 3",[3]; 1 min,3360 ng/mL
same,"concentration, average",[3]; 1 min,2260 ng/mL
same,"concentration, Run 1",[3]; 5 min,11710 ng/mL
same,"concentration, Run 2",[3]; 5 min,12240 ng/mL
same,"concentration, Run 3",[3]; 5 min,19910 ng/mL
same,"concentration, average",[3]; 5 min,14620 ng/mL
same,"concentration, Run 1",[3]; 10 min,23270 ng/mL
same,"concentration, Run 2",[3]; 10 min,23840 ng/mL
same,"concentration, Run 3",[3]; 10 min,57430 ng/mL
same,"concentration, average",[3]; 10 min,34840 ng/mL
same,"concentration, Run 1",[3]; 20 min,47050 ng/mL
same,"concentration, Run 2",[3]; 20 min,60830 ng/mL
same,"concentration, Run 3",[3]; 20 min,144620 ng/mL
same,"concentration, average",[3]; 20 min,87170 ng/mL
same,"concentration, Run 1",[3]; 40 min,112230 ng/mL
same,"concentration, Run 2",[3]; 40 min,139740 ng/mL
same,"concentration, Run 3",[3]; 40 min,193120 ng/mL
same,"concentration, average",[3]; 40 min,148360 ng/mL
"O=C1NC(=O)C(c2ccccc2)(c2ccccc2)N1 [SPM, sodium phenytoin monohydrate]",Percent change based on average of final two weights,"[1]; 58% RH, monohydrate",-10%
same,Percent change based on average of final two weights,"[1]; 75% RH, monohydrate",-10%
same,Percent change based on average of final two weights,"[1]; 84% RH, monohydrate",-9%
same,weight lost on reaching constant weight,[1]; [8],10%
same,endothermic transition temperature,"[2]; DSC, nitrogen, 10° C./minute, monohydrate",about 65 °C
same,weight loss accompanying the low-temperature endothermic transition,"[2]; TGA, transition at about 65° C.",5%
same,amount of sodium phenytoin at extended reaction times versus earlier samples,[4]; 24 and 72 hours,appeared to be less than the amount found in the earlier samples
same,dissolution rate in water,[4]; nonintrinsic dissolution experiments,high enough that differences could not be determined
same,sodium phenytoin in samples withdrawn,"[4]; pure water, including 5 minutes after slurries were prepared, data invalid for dissolution rate",about 5 mg/mL
same,dissolution in water,"[4]; sieved powder (<75 μm), pure water",dissolve rapidly and extensively in water
same,"concentration, average","[3]; 1 min, monohydrate",3300 ng/mL
same,"concentration, Run 1","[3]; 1 min, monohydrate",2420 ng/mL
same,"concentration, Run 2","[3]; 1 min, monohydrate",2210 ng/mL
same,"concentration, Run 3","[3]; 1 min, monohydrate",5260 ng/mL
same,time to complete dissolution of tablets,[3]; 90% ethanol/10% water,15 to 40 min
same,dissolution rate relative to SPA,"[3]; 90% ethanol/10% water, high degree of imprecision",dissolves more rapidly than does SPA
same,"concentration, average","[3]; 5 min, monohydrate",39460 ng/mL
same,"concentration, Run 1","[3]; 5 min, monohydrate",44780 ng/mL
same,"concentration, Run 2","[3]; 5 min, monohydrate",25240 ng/mL
same,"concentration, Run 3","[3]; 5 min, monohydrate",48380 ng/mL
same,"concentration, average","[3]; 10 min, monohydrate",92380 ng/mL
same,"concentration, Run 1","[3]; 10 min, monohydrate",99180 ng/mL
same,"concentration, Run 2","[3]; 10 min, monohydrate",70050 ng/mL
same,"concentration, Run 3","[3]; 10 min, monohydrate",107910 ng/mL
same,"concentration, Run 2",[3]; 15 min,120280 ng/mL
same,"concentration, Run 3",[3]; 15 min,153220 ng/mL
same,"concentration, average",[3]; 15 min,136750 ng/mL
same,"concentration, average","[3]; 20 min, monohydrate",166110 ng/mL
same,"concentration, Run 1","[3]; 20 min, monohydrate",166110 ng/mL
same,form change on drying under low pressure,[5],these conditions caused dehydration
same,solid form interconversion under pressure used to make tablets,[6],no solid form interconversion occurred
same,stability and physical properties compared with sodium phenytoin anhydrate,[7],greatly improved stability and physical properties

# Reference: patent US6245917A, “Crystalline sodium phenytoin monohydrate” (Warner-Lambert Company, priority 1999, dated 2001)
